“Also recorded” adds a separate entry of the source.
How the values were obtained:
[1] = test system: p27 (Kip1); format: cell-based, human; conditions: LNCaP cells, 10 μM, up to 15 h
[2] = biological target: T1, AR from LNCaP cells (Homo sapiens, UniProt P10275, T878A); test: Competitive binding assay for the AR (relative binding affinity); conditions: dihydrotestosterone RBA=100
T1 construct: Whole cell extracts prepared from LNCaP and T47D cells were used as sources of the AR and PR respectively; endogenous in cells; host or cells: LNCaP whole cell extract
T1 sequence (P10275 whole entry T878A): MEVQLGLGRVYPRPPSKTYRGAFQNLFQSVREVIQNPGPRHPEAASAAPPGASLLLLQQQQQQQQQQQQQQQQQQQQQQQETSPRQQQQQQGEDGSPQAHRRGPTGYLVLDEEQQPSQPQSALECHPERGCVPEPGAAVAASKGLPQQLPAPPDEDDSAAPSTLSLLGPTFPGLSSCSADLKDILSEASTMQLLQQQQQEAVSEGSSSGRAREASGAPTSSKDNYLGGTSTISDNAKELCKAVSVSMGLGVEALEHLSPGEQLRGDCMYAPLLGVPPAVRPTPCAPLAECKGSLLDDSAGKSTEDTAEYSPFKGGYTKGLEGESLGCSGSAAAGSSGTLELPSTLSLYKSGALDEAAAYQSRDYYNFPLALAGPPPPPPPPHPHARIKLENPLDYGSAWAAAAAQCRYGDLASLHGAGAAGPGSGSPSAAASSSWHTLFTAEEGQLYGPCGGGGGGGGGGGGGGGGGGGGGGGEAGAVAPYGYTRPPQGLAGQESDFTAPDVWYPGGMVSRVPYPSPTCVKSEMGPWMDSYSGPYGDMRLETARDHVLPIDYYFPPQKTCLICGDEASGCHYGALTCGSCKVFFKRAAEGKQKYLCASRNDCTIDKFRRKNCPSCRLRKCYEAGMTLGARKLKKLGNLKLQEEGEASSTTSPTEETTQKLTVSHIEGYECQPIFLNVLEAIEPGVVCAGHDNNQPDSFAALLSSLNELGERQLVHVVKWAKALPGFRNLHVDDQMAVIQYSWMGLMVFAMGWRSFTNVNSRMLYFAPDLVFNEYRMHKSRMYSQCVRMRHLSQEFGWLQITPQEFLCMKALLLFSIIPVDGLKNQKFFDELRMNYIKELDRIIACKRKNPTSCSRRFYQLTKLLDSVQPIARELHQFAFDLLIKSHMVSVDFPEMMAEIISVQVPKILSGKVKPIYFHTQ

[3] = test system: p21 (WAF1/Cip1); format: cell-based, human; conditions: LNCaP cells, 10 μM
[4] = test system: p45 Skp2; format: cell-based, human; conditions: LNCaP cells, 10 μM, up to 15 h
[5] = test system: LNCaP cells; test: Annexin V staining and flow cytometry; format: cell-based, human; conditions: treatment for 15 h
[6] = test system: LNCaP cells; format: cell-based, human; conditions: LNCaP cells, single agent
[7] = test system: LNCaP, PC3 and DU145 cells; test: Differential sensitivity of AR positive and AR negative cells; format: cell-based, human; conditions: dose of 10 μM
Procedure: AR positive LNCaP cells were 7-fold more sensitive than AR negative PC3 and DU145 cells at a dose of 10 μM. Investigations on similar molecules in which a ligand for the estrogen receptor (ER) was tethered to the same DNA damaging warhead, a similar (but slightly smaller) differential toxicity in favor of killing ER positive cells was observed.

[8] = test system: PARP; format: cell-based, human; conditions: 10 μM, LNCaP cells
[9] = test system: liver DNA; test: DNA adduct formation in liver of treated mice; format: in vivo; conditions: two hours post dosing
Procedure: A set of in vivo studies was performed to assess the stability and biodistribution of the 11β-dichloro compound in mice. These studies required formulation of the compound in a vehicle that would deliver the compound to the tissues following IP or IV administration. The vehicle was Cremophor EL:ethanol:saline (40:30:30 by volume). […] For 2 to 3 hours the compound was present above the […] concentration at which good differential toxicity in favor of killing LNCaP cells in culture was observed. There was also evidence that the intact molecule reached its intended biological target—cellular DNA.

[10] = test system: LNCaP cells; test: Cell cycle analysis by flow cytometry; format: cell-based, human; conditions: LNCaP cells
[11] = test system: LNCaP cells grown as a xenograft; test: LNCaP xenograft in nude mice; format: in vivo; conditions: seven weekly five-day cycles of 30 mg/kg IP
Procedure: The efficacy of 11β-dichloro was examined toward LNCaP cells grown as a xenograft in nude mice. […] Animals bearing LNCaP xenografts were treated with seven consecutive weekly five-day cycles of 30 mg 11β-dichloro/kg administered via IP injection.
Animal Studies. Four to six week old NIH Swiss nu/nu athymic male mice (25 gm) were obtained from the National Cancer Institute-Frederick Cancer Center (Frederick, Md.). Experiments were carried out under guidelines of the MIT Animal Care Committee. Animals were injected subcutaneously in the right flank with 5×10^6 LNCaP cells suspended in a solution of 50% PBS/50% Matrigel (Collaborative Research, Bedford, Mass.). Therapy commenced when a palpable tumor of approximately 4×4 mm formed (n=5 per treatment group). The 11β-dichloro compound was dissolved in a vehicle composed of cremophor EL, saline and ethanol (43:30:27). Tumor dimensions were measured with vernier calipers. Tumor volumes were calculated using the formula: π/6×larger diameter×(smaller diameter)^2. Statistical analyses were performed using a paired t-test. At the end of the study period, animals were euthanized with CO2. At the time of sacrifice, blood samples were taken from several animals in each group for a complete blood count, along with serum chemistry and liver function analyses. A complete necropsy was also performed, including histopathology on two animals from each group.

[12] = test system: 4E-BP1; test: Phosphorylation status of 4E-BP1 in LNCaP cells; format: cell-based, human
[13] = test system: p70S6K; test: Phosphorylation status of p70S6K in LNCaP cells; format: cell-based, human; conditions: after addition to cells
[14] = test system: LNCaP cells; test: DNA fragmentation by agarose gel electrophoresis; format: cell-based, human; conditions: 10 μM, 24 h exposure
[15] = Pharmacokinetics / plasma levels in mice
[16] = test system: engineered estrogen receptor ligand binding domain-positive HeLa cell line; test: ER ligand binding domain-positive HeLa xenograft in nude mice; format: in vivo
[17] = test system: LNCaP cells; format: cell-based, human
[18] = test system: human colon adenocarcinoma cell line DLD-1; test: DLD-1 xenograft in nude mice; format: in vivo
[19] = test system: c-Myc; test: c-Myc protein levels in LNCaP cells; format: cell-based, human

CC12CC(CCCCCCNCCOC(=O)NCCCc3ccc(N(CCCl)CCCl)cc3)C3=C4CCC(=O)C=C4CCC3C1CCC2O (stereo not drawn) [Compound 11β-dichloro, 11β-{N-(2-(N-((N,N-bis-2-chloroethylaminophenyl)propyl)-carbamoyloxy)ethyl)aminohexyl}-17β-hydroxy-estra-Δ4(5),9(10)-3-one]
levels of p27 [1]: increased | RBA (Relative Binding Affinity) for the AR [2]: 33 | initial change in levels of p21 [3]: initially decreased | increase in level of p21 ([3]; up to 15 h): 9 fold | levels of Skp2 [4]: decreased | concentration showing increased Annexin V staining [5]: > 5 µM | apoptotic response [6]: LNCaP cells undergo apoptosis; also recorded: potent inducer of apoptosis and cell death; also recorded: activates an apoptotic response resulting in destruction of cells | sensitivity of AR positive LNCaP cells relative to AR negative PC3 and DU145 cells [7]: 7 fold | time to cleavage of PARP [8]: ≤ 9 h | DNA adducts formed by the intact compound in liver [9]: isolated from liver DNA of treated animals | cell cycle arrest [10]: did not arrest cells in a specific point in the cell cycle | tumor growth of LNCaP xenograft [11]: inhibition of tumor growth | phosphorylation of 4E-BP1 [12]: rapid disappearance of phosphate groups | time to removal of the phosphate on Th389 of p70S6K [13]: ≤ 30 min | DNA fragmentation [14]: DNA fragmentation occurs | plasma levels ([15]; IP injection of radiolabeled compound, within 30 min): 30 to 40 µM | intact compound in plasma by HPLC ([15]; at 1 hour, along with several minor unidentified metabolites): lower concentrations | tumor growth of ER-LBD-positive HeLa xenograft [16]: Inhibition of tumor growth | changes in LNCaP cell shape [17]: dramatic contraction and detachment | tumor growth of DLD-1 xenograft [18]: Inhibition of tumor growth | levels of the c-Myc protein [19]: decreased rapidly

From patent US20060019936A1 (priority 2004, published 2006)
